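These data come from cells grown in 96-well plates and exposed to compound for 48 hours at five concentrations. GI50 is the concentration that inhibits growth by half.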 The source made the active and inactive calls. No stated cut-off is given here; in the data, active = GI50 up to about 1.1 µM and inactive = higher.
Tests used:
Assay in all cases: NCI tumour cell line growth inhibition, 48 h
PC-3 = test system: PC-3
MDA-N = test system: MDA-N
MOLT-4 = test system: MOLT-4
HCC 2998 = test system: HCC 2998
T47D = test system: T47D
LOX IMVI = test system: LOX IMVI
BT-549 = test system: BT-549
HCT-15 = test system: HCT-15
ACHN = test system: ACHN
SK-OV-3 = test system: SK-OV-3
HOP-62 = test system: HOP-62
A549 = test system: A549
K562 = test system: K562
HCT-116 = test system: HCT-116
KM12 = test system: KM12
UO-31 = test system: UO-31
786-0 = test system: 786-0
NCI-H460 = test system: NCI-H460
EKVX = test system: EKVX
A498 = test system: A498

| SMILES | GI50 (PC-3) | GI50 (MDA-N) | GI50 (MOLT-4) | GI50 (HCC 2998) | GI50 (T47D) | GI50 (LOX IMVI) | GI50 (BT-549) | GI50 (HCT-15) [µM] | GI50 (ACHN) | GI50 (SK-OV-3) | GI50 (HOP-62) | GI50 (A549) | GI50 (K562) | GI50 (HCT-116) | GI50 (KM12) | GI50 (UO-31) | GI50 (786-0) | GI50 (NCI-H460) | GI50 (EKVX) | GI50 (A498) |
| --- | --- | --- | --- | --- | --- | --- | --- | --- | --- | --- | --- | --- | --- | --- | --- | --- | --- | --- | --- | --- |
| Cc1cc(NS(=O)(=O)c2ccc(NC(NC(=O)C(C(F)(F)F)C(F)(F)F)(C(F)(F)F)C(F)(F)F)cc2)no1 | > 100 µM (inactive) | > 100 µM (inactive) | > 100 µM (inactive) | > 100 µM (inactive) | > 100 µM (inactive) | > 100 µM (inactive) | > 100 µM (inactive) | > 100 | > 100 µM (inactive) | 1.96 µM (inactive) | > 100 µM (inactive) | > 100 µM (inactive) | > 100 µM (inactive) | > 100 µM (inactive) | > 100 µM (inactive) | > 100 µM (inactive) | > 100 µM (inactive) | > 100 µM (inactive) | > 100 µM (inactive) |  |
| O=C(O)CSCC(=O)c1ccccc1 | > 100 µM (inactive) | > 100 µM (inactive) | > 100 µM (inactive) |  | > 100 µM (inactive) | > 100 µM (inactive) | > 100 µM (inactive) | > 100 | > 100 µM (inactive) | > 100 µM (inactive) | > 100 µM (inactive) | > 100 µM (inactive) | > 100 µM (inactive) | > 100 µM (inactive) | > 100 µM (inactive) | > 100 µM (inactive) | > 100 µM (inactive) | > 100 µM (inactive) | > 100 µM (inactive) | > 100 µM (inactive) |
| O=C(O)c1cc2ccccc2c2c1C(=O)c1ccccc1-2 | > 100 µM (inactive) | > 100 µM (inactive) | > 100 µM (inactive) | > 100 µM (inactive) | > 100 µM (inactive) | > 100 µM (inactive) | > 100 µM (inactive) | 92 | 30.3 µM (inactive) | 56.6 µM (inactive) | 20.7 µM (inactive) | 75.9 µM (inactive) | > 100 µM (inactive) | > 100 µM (inactive) | > 100 µM (inactive) | 46 µM (inactive) | > 100 µM (inactive) | > 100 µM (inactive) |  |  |
| O=C(N/N=C\c1cccs1)c1ccncc1 | > 100 µM (inactive) |  | > 100 µM (inactive) | > 100 µM (inactive) | > 100 µM (inactive) |  | > 100 µM (inactive) | > 100 | > 100 µM (inactive) | > 100 µM (inactive) | > 100 µM (inactive) | > 100 µM (inactive) | > 100 µM (inactive) | > 100 µM (inactive) | > 100 µM (inactive) | > 100 µM (inactive) | > 100 µM (inactive) | > 100 µM (inactive) | > 100 µM (inactive) | > 100 µM (inactive) |
| Cc1ccsc1/C=N/Nc1cnccn1 | > 100 µM (inactive) |  | 78.7 µM (inactive) | > 100 µM (inactive) | > 100 µM (inactive) | 76.4 µM (inactive) | > 100 µM (inactive) | > 100 | > 100 µM (inactive) | > 100 µM (inactive) | > 100 µM (inactive) | > 100 µM (inactive) | > 100 µM (inactive) | > 100 µM (inactive) | 99.5 µM (inactive) | > 100 µM (inactive) | > 100 µM (inactive) |  | 63.5 µM (inactive) | 62.4 µM (inactive) |
| COc1ccc(C2OC(N)=C(C#N)C3=C2CCCC3C)cc1OC (stereo not drawn) | > 100 µM (inactive) | > 100 µM (inactive) | > 100 µM (inactive) |  | > 100 µM (inactive) | > 100 µM (inactive) | > 100 µM (inactive) | > 100 | > 100 µM (inactive) | > 100 µM (inactive) |  |  | > 100 µM (inactive) | > 100 µM (inactive) | > 100 µM (inactive) | > 100 µM (inactive) | > 100 µM (inactive) | > 100 µM (inactive) | > 100 µM (inactive) | > 100 µM (inactive) |
| O=c1onc2c3ccccc3ncn12 | > 100 µM (inactive) |  | > 100 µM (inactive) | > 100 µM (inactive) | > 100 µM (inactive) | > 100 µM (inactive) | > 100 µM (inactive) | > 100 | > 100 µM (inactive) | > 100 µM (inactive) | > 100 µM (inactive) | > 100 µM (inactive) | > 100 µM (inactive) | > 100 µM (inactive) | > 100 µM (inactive) | > 100 µM (inactive) | > 100 µM (inactive) |  | > 100 µM (inactive) | > 100 µM (inactive) |
| Cc1ccc(S(=O)(=O)NC(=O)NCC(=O)O)cc1 | > 100 µM (inactive) | > 100 µM (inactive) | > 100 µM (inactive) |  | > 100 µM (inactive) | > 100 µM (inactive) | > 100 µM (inactive) | > 100 | > 100 µM (inactive) | > 100 µM (inactive) | > 100 µM (inactive) | > 100 µM (inactive) | > 100 µM (inactive) | > 100 µM (inactive) | > 100 µM (inactive) | > 100 µM (inactive) | > 100 µM (inactive) | > 100 µM (inactive) |  |  |
| CC(O)(CCCCCl)c1nc2ccccc2s1 (stereo not drawn) | 34.9 µM (inactive) | > 100 µM (inactive) | 50.7 µM (inactive) |  | 29.8 µM (inactive) | 48.4 µM (inactive) | 67.9 µM (inactive) | > 100 | > 100 µM (inactive) | > 100 µM (inactive) | > 100 µM (inactive) | > 100 µM (inactive) | 89.9 µM (inactive) | 47 µM (inactive) | > 100 µM (inactive) | 64.1 µM (inactive) | > 100 µM (inactive) |  | 52.4 µM (inactive) | > 100 µM (inactive) |
| O=c1cc(CBr)c2ccc(O)cc2o1 | 62.4 µM (inactive) | 98.9 µM (inactive) | 60 µM (inactive) | 76.6 µM (inactive) |  | > 100 µM (inactive) | 35.1 µM (inactive) | 71.4 | 66.4 µM (inactive) | 97.7 µM (inactive) | 17 µM (inactive) | 92.5 µM (inactive) | 69.8 µM (inactive) | > 100 µM (inactive) | 54.1 µM (inactive) | 58.5 µM (inactive) | > 100 µM (inactive) | 63.5 µM (inactive) | 21.7 µM (inactive) | 25.8 µM (inactive) |
| Cc1ccc(/N=N/C(=N/NC(=O)c2cc(Cl)ccc2C(=O)c2ccccc2)c2ccc(N(CCC#N)CCC#N)cc2C)cc1 | 7.24 µM (inactive) | 17 µM (inactive) | 4.99 µM (inactive) | 13.8 µM (inactive) | 3.81 µM (inactive) |  | 15.4 µM (inactive) | 7.55 | 22 µM (inactive) | 8.09 µM (inactive) | 15.6 µM (inactive) | 11.5 µM (inactive) | 17.4 µM (inactive) | 9.64 µM (inactive) | 10.9 µM (inactive) | 22.4 µM (inactive) | 10.4 µM (inactive) | 2.41 µM (inactive) | 17.3 µM (inactive) |  |
| O=C1CCCC1CC(CN1CCOCC1)Sc1nnnn1-c1ccccc1 (stereo not drawn) | > 100 µM (inactive) | > 100 µM (inactive) | > 100 µM (inactive) | > 100 µM (inactive) |  | > 100 µM (inactive) | > 100 µM (inactive) |  | 31 µM (inactive) | > 100 µM (inactive) | > 100 µM (inactive) | > 100 µM (inactive) | > 100 µM (inactive) | > 100 µM (inactive) | > 100 µM (inactive) | 96.8 µM (inactive) | > 100 µM (inactive) |  | 28.9 µM (inactive) | > 100 µM (inactive) |
| ClCCN(CCCl)c1ccc(CNCCCNCc2ccc(N(CCCl)CCCl)cc2)cc1 | 5.92 µM (inactive) |  |  | 2.1 µM (inactive) | 2.04 µM (inactive) | 1.65 µM (inactive) | 3.38 µM (inactive) | 2.47 | 0.521 µM (active) | 2.61 µM (inactive) | 2.54 µM (inactive) | 3.2 µM (inactive) | 1.93 µM (inactive) | 4.13 µM (inactive) | 1.99 µM (inactive) | 2.06 µM (inactive) | 2 µM (inactive) | 0.402 µM (active) | 2.69 µM (inactive) | 7.24 µM (inactive) |
| CCN(CC)CCNC(=O)c1cc2cc(NC(=O)c3cc4cc(NC(=O)c5cc6cc([N+](=O)[O-])ccc6[nH]5)ccc4[nH]3)ccc2[nH]1 | > 100 µM (inactive) |  | < 0.01 µM (active) | > 100 µM (inactive) | > 100 µM (inactive) | > 100 µM (inactive) | > 100 µM (inactive) | > 100 | > 100 µM (inactive) | > 100 µM (inactive) | > 100 µM (inactive) | > 100 µM (inactive) | > 100 µM (inactive) |  | > 100 µM (inactive) | > 100 µM (inactive) | > 100 µM (inactive) | > 100 µM (inactive) | > 100 µM (inactive) | > 100 µM (inactive) |
| Nc1nc(-c2ccccc2/N=N/N2CCCC2)nc2ccccc12 | 3.7 µM (inactive) |  | 1.16 µM (inactive) |  | 2.4 µM (inactive) | 1.75 µM (inactive) | 11.8 µM (inactive) | 2.7 | 2.52 µM (inactive) | 9.1 µM (inactive) | 1.73 µM (inactive) | 2.62 µM (inactive) | 3.05 µM (inactive) | 1.02 µM (active) | 2.13 µM (inactive) | 1.57 µM (inactive) | 2.38 µM (inactive) | 2.92 µM (inactive) | 10.8 µM (inactive) | 7.76 µM (inactive) |
| CCC(c1nc2ccccc2c(=O)n1NC(=O)C(C)(C)C)C1(O)CCCCC1 (stereo not drawn) | > 100 µM (inactive) | > 100 µM (inactive) | 80.4 µM (inactive) |  | > 100 µM (inactive) |  | > 100 µM (inactive) | > 100 | > 100 µM (inactive) | > 100 µM (inactive) | > 100 µM (inactive) | > 100 µM (inactive) | > 100 µM (inactive) | > 100 µM (inactive) | > 100 µM (inactive) | > 100 µM (inactive) | > 100 µM (inactive) | > 100 µM (inactive) | > 100 µM (inactive) | > 100 µM (inactive) |
